± gives the standard deviation of the averaged measurements.
Legend:
Conditions in all cases: 72 h
[1] = tested on: Caco-2; assay: relative viability EC50 (midpoint between 100% and the lowest measured viability); higher = less toxic
[2] = tested on: HepG2; assay: as above
[3] = tested on: U2OS; assay: as above
[4] = tested on: Calu-3; assay: as above
[5] = tested on: Vero E6; assay: as above
[6] = tested on: Caco-2; assay: drug sensitivity score (DSS) for viability; higher = more toxic; extreme values may be limits of the assay
[7] = tested on: HepG2; assay: as above
[8] = tested on: U2OS; assay: as above
[9] = tested on: Calu-3; assay: as above
[10] = tested on: Vero E6; assay: as above
[11] = tested on: Caco-2; assay: cell viability relative to DMSO; higher = less toxic
[12] = tested on: HepG2; assay: as above
[13] = tested on: U2OS; assay: as above
[14] = tested on: Calu-3; assay: as above
[15] = tested on: Vero E6; assay: as above

Structure (SMILES)	relative viability EC50 [1] [µM]	relative viability EC50 [2] [µM]	relative viability EC50 [3] [µM]	relative viability EC50 [4] [µM]	relative viability EC50 [5] [µM]	drug sensitivity score [6]	drug sensitivity score [7]	drug sensitivity score [8]	drug sensitivity score [9]	drug sensitivity score [10]	cell viability ([11]; 1 nM) [%]	cell viability ([11]; 10 nM) [%]	cell viability ([11]; 100 nM) [%]	cell viability ([11]; 1000 nM) [%]	cell viability ([11]; 10000 nM) [%]	cell viability ([12]; 1 nM) [%]	cell viability ([12]; 10 nM) [%]	cell viability ([12]; 100 nM) [%]	cell viability ([12]; 1000 nM) [%]	cell viability ([12]; 10000 nM) [%]	cell viability ([13]; 1 nM) [%]	cell viability ([13]; 10 nM) [%]	cell viability ([13]; 100 nM) [%]	cell viability ([13]; 1000 nM) [%]	cell viability ([13]; 10000 nM) [%]	cell viability ([14]; 1 nM) [%]	cell viability ([14]; 10 nM) [%]	cell viability ([14]; 100 nM) [%]	cell viability ([14]; 1000 nM) [%]	cell viability ([14]; 10000 nM) [%]	cell viability ([15]; 1 nM) [%]	cell viability ([15]; 10 nM) [%]	cell viability ([15]; 100 nM) [%]	cell viability ([15]; 1000 nM) [%]	cell viability ([15]; 10000 nM) [%]
COc1cc(C=O)ccc1O [vanillin]	> 10	> 10	> 10	> 10	> 10	0	0	0	0	0	92.8	90	96	104	96.6	99.9	91.9	102	115	97.4	96.1	104	95.1	104	99.1	97.5	107	109	99.8	105	92	91.5	89.7	89	105
Fc1ccc(CN2CCC(Nc3ccc(C(F)(F)F)nn3)CC2)cc1F	> 10	> 10	> 10	> 10	> 10	0	0.8	0	0	0	100	95.8	101	94.7	94.1	90.1	108	91.2	88.1	93.4	101	95.5	95.6	102	101	112	97.6	86.9	91.7	107	90.3	101	97.4	98.5	104
COc1ccc(Cc2nccc3cc(OC)c(OC)cc23)cc1OC [papaverine]	> 10	3.17	> 10	> 10	> 10	1.7	3.7	0	1.5	0	95	91.9	95.8	86.1	77.8	111	109	92.9	100	32.7	101	92.5	99	96.5	89.7	91.3	98.8	98.8	87.6	81.2	103	105	105	108	90.1
CCOC(=O)[C@H]1O[C@@H]1C(=O)N[C@@H](CC(C)C)C(=O)NCCC(C)C [aloxistatin]	> 10	> 10	> 10	> 10	> 10	0	0.2	0	0	0	97.6	98.8	90.5	102	98	118	102	96.1	90.7	88.8	99.6	102	94.7	102	97.6	91.7	99.3	107	101	99.5	106	109	108	102	99.2
Clc1ccc(CCCOCCCN2CCCCC2)cc1 [pitolisant]	> 10	> 10	> 10	> 10	> 10	0	0.3	0	0	0	99.4	93.6	96.4	89.7	89.8	93.8	91.4	96	94.6	81.8	104	99.7	100	97.7	96.8	90.7	106	92.3	90.6	94.8	95	94.9	95.6	93.2	89.4
CCCCOc1c(C(=O)c2c(F)cc(C)cc2F)c[nH]c2nncc1-2	> 10	> 10	> 10	> 10	> 10	2.7	2.9	0	0	1.6	104	102	94	82.9	77.7	96.7	99.8	95.1	81.4	80.8	98	101	102	113	95.6	94.9	86.1	71.1	60.7	89.4	102	97.4	94.1	84.5	84.9
CC(C)NCC(O)COc1cccc2ccccc12 (stereo not given) [propranolol]	> 10	> 10	> 10	> 10	> 10	0	0	0.0333 ± 0.058	0.467 ± 0.81	0	101 ± 2.7	96 ± 3.8	101 ± 3	95 ± 9.6	100 ± 4.5	92.9 ± 6.3	101 ± 2.8	95.6 ± 7	102 ± 6	102 ± 1.6	96.1 ± 3.6	95.2 ± 2.7	97.2 ± 7.5	95.6 ± 2.3	96.5 ± 7.6	95.3 ± 3.9	96.7 ± 2.8	99.4 ± 6	89.6 ± 5	92.9 ± 1.8	94.3 ± 3.7	98.95 ± 0.49	95.3 ± 4	95.1 ± 0.71	99.3 ± 3.2

Reference: the supplement of paper PMC13380429
